According to patent US20240391960A1, “EXTRACELLULAR CYCLOPHILIN INHIBITOR AND USE THEREOF” (PEKING UNIVERSITY SHENZHEN GRADUATE SCHOOL, priority 2021, published 2024):
One block for each compound: values may come before it.

How the values were obtained:
[1] = system: THP-1 cells; assay: Transwell CypA-induced THP-1 cell migration; type: cell-based; conditions: 200 ng/ml CypA, 1 hour
[2] = system: CD8T cells; assay: CD8 T cell infiltration in the tumor microenvironment, frozen section immunofluorescence; type: in vivo, mice; conditions: tumor frozen sections
Experimental: The thickness of the frozen section is required to be 4-8 μm, place it at room temperature for 30 min after taking it out from −80° C., fix it in acetone at 4° C. for 10 min, wash with PBS, 5 min×3; block with 5-10% normal goat serum (diluted in PBS) and incubate at room temperature for 10 minutes. […] PBS flush, 5 min×3 times; add the appropriately diluted biotin-labeled secondary antibody (diluted in 1% BSA-PBS) dropwise, and incubate at 37° C. for 90-120 minutes; or second-generation horseradish enzyme-labeled streptavidin working solution, incubate at 37° C. or room temperature for 10-30 minutes; the PBS was washed 5 minutes×3 times, mounted and photographed using an inverted fluorescence microscope. Finally, ImageJ was used for statistical analysis.

[3] = system: IL-8; assay: CypA-stimulated IL-8 transcription in THP1 cells, RT-PCR; type: cell-based; conditions: CypA 12 hours, medium with 0.1% BSA
[4] = system: TNF-a, IL-1β; assay: Serum inflammatory factors in DB mice, ELISA; type: in vivo; conditions: 42 days of administration
[5] = Serum ALT, AST in high-fat diet-induced atherosclerotic mice; type: in vivo; conditions: ApoE-/- mice, 5 mg/kg once a week, 9 weeks
From the text: Atherosclerosis model in mice was induced and administered as described in Example 25. At the end of the experimental period, the mice were euthanized and serum was taken for determination of ALT and AST contents.

[6] = system: HEK293 human kidney cells; assay: MTT cytotoxicity; type: cell-based; conditions: HEK293, medium with 4% BSA, 30 hours, up to 50 μM
[7] = molecular target: albumin (BSA) (Bos taurus, UniProt P02769); assay: Albumin cysteine reaction site, bottom-up peptide LC-ESI-MS; conditions: pancreatin digest, peptide GLVLIAFSQYLQQCPFDEHVK
Experimental: The complex of Example 4 was denatured with urea, and the diluted protein sample was added in the proportion of pancreatin:protein=1:50. After enzymatic hydrolysis at 37° C. for 18 h, the peptide sample was desalted using Pierce® Spin Columns (Thermo Fisher) desalting column. The eluate was eluted with 70% acetonitrile, lyophilized, dissolved with 0.1% formic acid in water, and the peptide was analyzed by LC-ESI-MS, and the modified sites were analyzed using BioPharma Finder software (Thermo Fisher).

[8] = system: IL-2; assay: IL-2 secretion of activated Jurkat cells, ELISA; type: cell-based; conditions: 4MCsA up to 5 μM, 24 h PMA and ionomycin stimulation
Experimental: Meanwhile, the present invention further examined the secretion of IL-2 protein downstream of T-cell activation in which NFAT was involved, and the IL-2 protein content in the culture medium was measured using the ELISA method after 24 h of PMA and ionomycin stimulation.

[9] = Glucose tolerance test (GTT); type: in vivo, mice
[10] = Aortic lesion extent in high-fat diet induced atherosclerotic mice, oil red O; type: in vivo, ApoE gene-deficient C57BL/6J mice; conditions: ApoE-/- mice, Western diet, 5 mg/kg/week tail vein, 9 weeks
Experimental: Five-week-old ApoE gene-deficient C57BL/6J mice were randomly divided into two groups and fed with the Western diet for high-fat induction. From the 7th week, the experimental group received 4MCsA at a dose of 5 mg/kg/week via tail vein injection for 9 weeks. At the end of the experiment, the experimental animals were euthanized, dissected, and perfused with 10 mL of tissue fixative (4% paraformaldehyde) and 10 mL of […] from the right atrial appendage. The aorta was isolated intact under stereoscope and extravascular adherent adipose tissue was dissected with fat forceps. The isolated aorta was stained with oil red O, photographed, and recorded, and the lesion area of the aortic arch in the experimental group and the control group was counted with ImageJ, and the difference was statistically significant.

[11] = system: CT26-LUC mouse colon cancer cells; assay: CT26-LUC mouse colon cancer tumor model; type: in vivo; conditions: Balb/C mice, subcutaneous CT26-LUC, 5 mg/kg, three weeks
Experimental: This example establishes a mouse tumor model to reflect the effect of the drug by measuring the size of the tumor.
CT26-LUC mouse colon cancer cells were inoculated subcutaneously on the dorsal side of Balb/C mice in an amount of […]. Six days later, the tumor size was about 100 mm^3. The simultaneous administration was measured with vernier caliper and the administration dose of 4MCsA was 5 mg/kg. The tumors were measured once every two days and the tumor size was counted. The experiment was terminated after three weeks.

[12] = molecular target: T1, intracellular CypA (Homo sapiens, UniProt P62937); assay: Fluorescence competition flow cytometry with CsA-FITC probe in Jurkat cells; type: cell-based; conditions: CsA-FITC labelled Jurkat cells
T1 construct: endogenous in cells; host or cells: Jurkat

[13] = Insulin tolerance test (ITT); type: in vivo, mice
Experimental: Insulin signaling response was further measured by performing an insulin sensitivity test (insulin tolerance test, ITT) on each of the two mice in Example 15. After the mice were fasted for 6 hours, insulin (2 U/kg for DB mice and 1 U/kg for HFD mice) was injected intraperitoneally, and then the blood glucose contents were measured at different time points.

[14] = system: CRP; assay: Serum CRP in high-fat diet-induced atherosclerotic mice; type: in vivo; conditions: ApoE-/- mice, 5 mg/kg weekly, 9 weeks
Experimental: After successful modeling of atherosclerotic mice, the effect of the compounds on the development of cardiovascular disease was evaluated by assessing the risk of developing cardiovascular disease in the body by measuring CRP levels in the serum of experimental mice given weekly tail vein injections of 5 mg/kg 4MCsA for 9 weeks as described in Example 23.

[15] = system: insulin; assay: Basal and glucose-stimulated insulin secretion, ELISA; type: in vivo, mice
[16] = system: CypA; assay: Serum CypA content in T2DM model mice, ELISA; type: in vivo; conditions: DB diabetic mice, tail vein weekly for 3 weeks
From the text: This example examined the effect of drugs on serum CypA contents in mice using db/db genetically engineered mice deficient in leptin receptors (DB mice) as a T2DM model (C57 mice as a healthy control group).

[17] = Fasting blood glucose and glycated hemoglobin in T2DM mouse models; type: in vivo, mice
From the text: To effectively evaluate the effect of the drug on T2DM, this example selected DB mice and high fat diet-induced obese mouse models (HFD mice) as two different predisposing mouse models of type 2 diabetes as subjects.

[18] = Serum blood lipid markers in high-fat diet-induced atherosclerotic mice; type: in vivo; conditions: ApoE-/- mice, 5 mg/kg once a week, 9 weeks
Experimental: A mouse model of atherosclerosis induced by a high-fat diet was established as described in Example 23 and administered in groups, 4MCsA at 5 mg/kg or placebo via tail vein once a week for 9 consecutive weeks, after which the mice were euthanized and serum was collected for routine lipid profile testing.

[19] = molecular target: T2, CypA (Homo sapiens, UniProt P62937); assay: PPIase activity, chymotrypsin hydrolysis of N-Succinyl-Ala-Ala-Pro-Phe p-nitroanilide; type: biochemical; conditions: 50 nM CypA, 250 μg/mL chymotrypsin, 80 μM substrate peptide; read-out: IC50, CypA enzymatic activity
Experimental: The effect of inhibitors on CypA enzyme activity was determined using the chymotrypsin hydrolysis of N-Succinyl-Ala-Ala-Pro-Phe p-nitroanilide substrate peptide. […] When catalyzed by proline cis-trans isomerase, its configuration changes from cis to trans, which can be specifically cleaved by chymotrypsin and release p-nitroanilide with maximum absorption around 390 nm. Thus, the stronger the CypA enzyme activity is, the faster the substrate is degraded, and the faster the absorbance at 390 nm increases. Kinetic monitoring was initiated by the addition of 250 μg/mL chymotrypsin and finally, 80 μM of an ultra-dry substrate peptide solution (470 mM LiCL in trifluoroethanol) using a microplate reader with an autosampler after binding to different concentrations of inhibitors using 50 nM CypA.

[20] = molecular target: T2, CypA; assay: Competitive fluorescence polarization binding assay
From the text: Fluorescence polarization (FP) is a widely used technique for measuring ligand-receptor binding in solution systems. Free fluorescent probes in the free state rotate rapidly in the system and the emitted fluorescence is mostly depolarized light. Once the probe binds to a larger molecule, the rotation of the molecule is restricted, and the emission of polarized light increases.

[21] = system: Jurkat cells; assay: High resolution mass spectrometry determination of molecular penetration in Jurkat cells; type: in vitro ADME; conditions: 5 μM compound, 37° C., 2 hours
From the text: For direct detection of molecular penetration, intracellular compound concentrations were quantified by an external standard method using a QE-Focus mass spectrometer.
The m/z signal of the corresponding molecule is selected to perform peak extraction on the chromatogram to obtain an ion chromatogram (EIC) corresponding to the extraction of the molecule, and then the concentration of the extract is quantified using the peak area under the curve of the EIC of the cell extract.

[22] = Hepatorenal toxicity evaluation, serum ALT, AST, creatinine, urea; conditions: 50 days
[23] = system: NFAT; assay: NFAT dephosphorylation in PMA/ionomycin activated Jurkat cells, Western blot; type: cell-based; conditions: 1.5 h preincubation, 25 nM PMA and 1 μg/mL ionomycin 2 h
From the text: Based on this, the present inventors investigated the effect of molecules on NFAT signal transduction during JurkatT cell activation by ionomycin and PMA. […] After the collection of cells, the dephosphorylation level of NFAT protein was detected by extraction, electrophoresis, transfer printing, and NFAT antibody. Dephosphorylation of NFAT results in two bands, phosphorylated and nonphosphorylated.

[24] = HFD mice, within 36 hours on day 23 of dosing
[25] = HFD mice, within 60 hours on day 17 of dosing
[26] = DB and HFD mice, once weekly tail vein, compared to CsA

T2 sequence (P62937 whole entry, species assumed): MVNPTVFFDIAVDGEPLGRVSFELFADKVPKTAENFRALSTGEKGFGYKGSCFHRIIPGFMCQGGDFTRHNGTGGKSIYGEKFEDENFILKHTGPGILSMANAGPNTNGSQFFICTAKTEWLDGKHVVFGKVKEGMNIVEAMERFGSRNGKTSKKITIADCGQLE
T1 sequence (P62937 whole entry): as the sequence (P62937 whole entry, species assumed) above
albumin (BSA), sequence (P02769 25-607): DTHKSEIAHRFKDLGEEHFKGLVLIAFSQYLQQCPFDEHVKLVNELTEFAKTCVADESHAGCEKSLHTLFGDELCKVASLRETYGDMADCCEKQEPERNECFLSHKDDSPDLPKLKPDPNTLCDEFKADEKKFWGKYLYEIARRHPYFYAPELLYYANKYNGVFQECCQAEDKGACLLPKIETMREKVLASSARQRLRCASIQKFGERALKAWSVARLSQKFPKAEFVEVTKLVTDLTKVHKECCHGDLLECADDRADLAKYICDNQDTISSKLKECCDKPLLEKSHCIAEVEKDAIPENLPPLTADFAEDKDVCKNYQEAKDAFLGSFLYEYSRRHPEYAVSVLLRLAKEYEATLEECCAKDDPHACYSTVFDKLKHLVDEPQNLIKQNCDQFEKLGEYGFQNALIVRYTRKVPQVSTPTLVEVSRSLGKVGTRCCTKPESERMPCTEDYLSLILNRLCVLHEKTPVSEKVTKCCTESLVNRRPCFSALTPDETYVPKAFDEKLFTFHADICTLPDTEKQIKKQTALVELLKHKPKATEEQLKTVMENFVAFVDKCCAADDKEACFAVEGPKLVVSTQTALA

Structure (SMILES): CC=CCC(C)C(O)C1C(=O)NC(CC)C(=O)N(C)CC(=O)N(C)C(CCCCNC(=O)CCCCCN2C(=O)C=CC2=O)C(=O)NC(C(C)C)C(=O)N(C)C(CC(C)C)C(=O)NC(C)C(=O)NC(C)C(=O)N(C)C(CC(C)C)C(=O)N(C)C(CC(C)C)C(=O)N(C)C(C(C)C)C(=O)N1C (stereo not shown) [Compound 4MCsA]
- migration activity promoted by CypA [1]: significantly abolished
- infiltration of CD8T cells in the tumor microenvironment [2]: promote the infiltration
- eCypA-increased transcription level of mRNA of IL-8 [3]: significantly inhibited
- level of IL-1β [4]: significantly reduce
- level of TNF-a [4]: significantly reduce
- activity of ALT in the serum [5]: no significant change
- activity of AST in the serum [5]: no significant change
- cytotoxicity, cell survival by MTT [6]: little cytotoxicity
- modification site on BSA [7]: Cys34
- secretion of IL-2 [8]: hardly affected
- GTT AUC ([9]; C57 healthy mice): less than that in CsA group
- GTT area under the curve (AUC) ([9]; DB mice, 5 mg/kg group vs Ctrl): significantly reduced
- glucose tolerance status (GTT) ([9]; DB mice, 5 mg/kg, after 5 weeks, glucose 1 g/kg i.p.): significantly improved
- GTT [9, 24]: significant improvement
- GTT AUC [9, 24]: significant decrease
- GTT [9, 25]: remained significantly improved
- GTT AUC [9, 25]: significantly reducing
- lesion area of the aortic arch vs control group [10]: significantly reduced
- tumor size [11]: certain antitumor effect
- effect on the intracellular fluorescence signal [12]: very little effect
- dose dependence of the effect on ITT ([13]; DB mice, 1 and 5 mg/kg/week): dose-dependent
- insulin sensitivity (ITT) ([13]; DB mice, insulin 2 U/kg i.p.): significantly improved
- ITT AUC compared with CsA ([13]; HFD mice): lower AUC
- insulin resistance caused by obesity (ITT) ([13]; HFD mice, insulin 1 U/kg i.p.): attenuated insulin resistance
- CRP content in the serum [14]: very significantly reduce
- basal level of insulin ([15]; DB mice): little effect
- glucose-stimulated insulin secretion vs DB ctrl ([15]; DB mice): no significant difference
- glucose-stimulated insulin secretion vs C57 ctrl ([15]; healthy C57 mice): increased
- blood CypA contents [16]: decreased
- fasting blood glucose [17, 26]: significantly decreased
- glycated hemoglobin contents [17, 26]: decreased
- fasting blood glucose vs C57 ctrl ([17]; normal C57 mice, 5 mg/kg/week, after 5 weeks): comparable to the normal group
- HDL-C content [18]: increased
- TC content [18]: no significant effect
- TC/HDL-C [18]: significantly reduce
- TG content [18]: no significant effect
- serum LDL-C content [18]: significantly decreased
- IC50 [19]: 22.6 ± 4.3 nM
- Ki ([20]; 50 nM CypA, 20 nM CsA-FITC probe): 198 ± 17 nM
- Intracellular conc. (μM) [21]: not detected
- ALT level ([22]; C57 healthy mice): remained close to those of healthy controls
- AST level ([22]; C57 healthy mice): remained close to those of healthy controls
- urea level ([22]; C57 healthy mice): remained close to those of healthy controls
- creatinine level between groups ([22]; DB mice): no difference
- hepatorenal toxicity (ALT, AST) ([22]; DB mice): not further enhanced
- urea level between groups ([22]; DB mice): no difference
- NFAT dephosphorylation induced by PMA and ionomycin [23]: no significant effect

- proportion of fluorescent cells [12]: 95.30%
- Kd ([20]; fluorescence polarization, probe itself, read-out: binding constant Kd with CypA): 14.8 ± 0.7 nM
Structure (SMILES): CCC1NC(=O)C(C(O)C(C)CC=Cc2ccc(C(=O)NCCOCCNC(=S)Nc3ccc(-c4c5ccc(=O)cc-5oc5cc(O)ccc45)c(C(=O)O)c3)cc2)N(C)C(=O)C(C(C)C)N(C)C(=O)C(CC(C)C)N(C)C(=O)C(CC(C)C)N(C)C(=O)C(C)NC(=O)C(C)NC(=O)C(CC(C)C)N(C)C(=O)C(C(C)C)NC(=O)C(CC(C)C)N(C)C(=O)CN(C)C1=O (stereo not shown) [CsA-FITC, reference compound]
